The subject of this experiment is PBMCs infected with VSV-G pseudotyped HIV virus (VSV-G/pNLGI-P2A-ΔEnv). Briefly: cells. In kind it is cell-based. As to conditions: Homo sapiens, PBMC, read-out: TACK EC50 (nM).
Turning to `COc1cc(=O)n(Cc2ccc3c(c2)NC(=O)O[C@]3(C#CC2CC2)C(C)(F)F)cn1` [Example 11, (S)-4-(cyclopropylethynyl)-4-(1,1-difluoroethyl)-7-((4-methoxy-6-oxopyrimidin-1(6H)-yl)methyl)-1,4-dihydro-2H-benzo[d][1,3]oxazin-2-one], the EC50 came out at 47 nM.

Consider `O=C1Nc2cc(Cn3cnccc3=O)c(F)cc2[C@@](C#CC2CC2)(C(F)(F)F)O1` (single isomer, unassigned) [Example 2A], for which the EC50 worked out at 88 nM.

For the compound `COCc1cc(=O)n(Cc2cc3c(cc2Cl)[C@@](C#CC2CC2)(C(F)(F)F)OC(=O)N3)cn1` [Example 19, (S)-6-chloro-4-(cyclopropylethynyl)-7-((4-(methoxymethyl)-6-oxopyrimidin-1(6H)-yl)methyl)-4-(trifluoromethyl)-1,4-dihydro-2H-benzo[d][1,3]oxazin-2-one], the EC50 was 128 nM.

Regarding `N#Cc1c(Cc2cc3c(cc2Cl)[C@@](C#CC2CC2)(C(F)(F)F)OC(=O)N3)ccnc1N` [Example 33, (S)-2-amino-4-((6-chloro-4-(cyclopropylethynyl)-2-oxo-4-(trifluoromethyl)-1,4-dihydro-2H-benzo[d][1,3]oxazin-7-yl)methyl)nicotinonitrile], the EC50 turned out to be 213 nM.

Consider `Nc1nccn(Cc2cc3c(cc2Cl)[C@@](C#CC2CC2)(C(F)(F)F)OC(=O)N3)c1=O` [Example 16, (S)-7-((3-amino-2-oxopyrazin-1(2H)-yl)methyl)-6-chloro-4-(cyclopropylethynyl)-4-(trifluoromethyl)-1,4-dihydro-2H-benzo[d][1,3]oxazin-2-one], for which the EC50 was 113 nM.

With `COCc1cc(=O)n(Cc2cc3c(cc2F)[C@@](C#CC2CC2)(C(F)(F)F)OC(=O)N3)cn1` (single isomer, unassigned) [Example 5A], the EC50 was found to be 35 nM.

As for `Nc1nccn(Cc2cc3c(cc2F)[C@@](C#CC2CC2)(C(F)(F)F)OC(=O)N3)c1=O` (single isomer, unassigned) [Example 1A], the EC50 came out at 39 nM.

As for `COc1cc(=O)n(Cc2cc3c(cc2Cl)[C@@](C#CC2CC2)(C(C)(F)F)OC(=O)N3)cn1` [Example 13, (S)-6-chloro-4-(cyclopropylethynyl)-4-(1,1-difluoroethyl)-7-((4-methoxy-6-oxopyrimidin-1(6H)-yl)methyl)-1,4-dihydro-2H-benzo[d][1,3]oxazin-2-one], the EC50 is 11 nM.

What is called EC50 is the concentration at which the effect is half-maximal.
